From patent publication US12310975B2, “Modulators of BCL6 proteolysis and associated methods of use” (Arvinas Operations, Inc., priority 2019, dated 2025) come the findings set out here.

Bounds are passed on as bounds.

The target in the experiment is BCL6 (Homo sapiens (Human), UniProt P41182). In words: Immunofluorescence high content imaging of BCL6 degradation in T47D cells. It counts as cell-based. To be noted: class symbols A-D, read-out: EC50 (nM)*. As to the method:
Immunofluorescence Protocol for High Cotent Imaging of BCL6
T47D cells were seeded in 100 μl volume of RPMI1640-10% FBS in a 96-well black/clear bottom plates for adherent lines (Corning #3904).
Day 1. T47D breast cancer epithelial cells were seeded at a density so that confluence is ˜70-90% at endpoint. Cells were seeded at 7K/0.1 ml/well the morning prior to the addition of exemplary bifunctional degradation compounds.
Day 2. Prepare an 11 point 3-fold serial dilution of exemplary bifunctional compound in DMSO and aliquot an appropriate volume to cell growth media to generate a 2× final concentration of exemplary bifunctional compound. Add an equal volume (0.1 ml) of 2× exemplary bifunctional compound/media mix to previously plated cells, for a final top concentration in aqueous cell growth media of 0.1 or 1 μM. Incubate for 3 days at 37° C., 5% CO2.
Day 5 Immunofluorescence. Discard cell media. Wash wells with 200 μl of room temperature phosphate-buffered saline (PBS). Prepared 4% paraformaldehyde (PFA) from 16% PFA (Electron Microscopy Sciences #15710) using 1×PBS. Fifty μl of 4% PF was added to each well and incubate for 15 minutes at room temperature to fix the cells. The PFA was aspirated and the cells washed twice with PBS (200 μl)).
Prepared 0.1% Triton X-100 in PBS using 10% triton X-100 stock. The cells were permeabilized by adding 100 ul of the 0.1% Triton X-100 in PBS to each well to permeabilize cells and incubating at room temperature for 15 minutes. Cells were washed twice with PBS.
Prepared 3% BSA/PBS (from Thermofisher #37515 Blocker BSA in TBS, 10%), and 100 ul was added to each well. The cells were incubated for at least 1 hour at room temperature.
Prepared 1% BSA/PBS using Blocker BSA/PBS, and the 3% BSA/PBS removed from the wells.
For no primary antibody controls, 50 μl 1% BSA/PBS was added.
Primary antibody (BCL6 Rb Ab, CST-14895, Cell Signaling) was diluted 1:300 in 1% BSA/PBS using Blocker BSA/PBS.
Fifty μl of primary antibody added to all remaining wells (i.e., all wells other than the primary antibody controls) and the cells were incubated overnight at 4° C. with slow orbital movement.
Day 6. Contents of the wells was removed and the cells washed four times with 200 ul PBS. 1% BSA/PBS was prepared using Blocker BSA in PBS.
Diluted secondary antibody goat anti-Rb IgG Alexa-488 1:1000, and cell mask-Alexa-647 1:3000 in 1% BSA/PBS in the same mix. Add 50 μl to each well and incubate at room temperature for 1 hour in the dark.
Cells were washed three times with 200 ul PBS, and then incubated for 10 minutes with 100 ul Hoechst dye at 1 μg/mL (20 mM stock) to stain cell nuclei. Wells were then washed with 200 μl PBS, and 100 ul of PBS was added to each well and the plate covered plate with a plastic opaque cover. Plates were stored at 4° C. and covered in aluminum foil until imaged.
Plates were equilibrated to room temperature prior to reading. The bottom of the plate was wiped with 70% isopropanol immediately prior to imaging.
10×, 4 fields/well, include Top hat smoothing in the analysis protocol.
For `CNC(=O)COc1cc2cc(Nc3nc(N4CCC(OCCOCCOCCOCCOCCOCCOc5ccc6c(c5)CN(C5CCC(=O)NC5=O)C6=O)CC4)ncc3Cl)ccc2n(C)c1=O` (stereo not drawn) [compound 67, 2-((6-((5-chloro-2-(4-((17-((2-(2,6-dioxopiperidin-3-yl)-1-oxoisoindolin-5-yl)oxy)-3,6,9,12,15-pentaoxaheptadecyl)oxy)piperidin-1-yl)pyrimidin-4-yl)amino)-1-methyl-2-oxo-1,2-dihydroquinolin-3-yl)oxy)-N-methylacetamide], the DC50 was over 100 nM. As for `CNC(=O)COc1cc2cc(Nc3nc(N4CCC(OCCOCCOCCOCCOCCOCCOc5ccc6c(c5)C(=O)N(C5CCC(=O)NC5=O)C6=O)CC4)ncc3Cl)ccc2n(C)c1=O` (stereo not drawn) [compound 68, 2-((6-((5-chloro-2-(4-((17-((2-(2,6-dioxopiperidin-3-yl)-1,3-dioxoisoindolin-5-yl)oxy)-3,6,9,12,15-pentaoxaheptadecyl)oxy)piperidin-1-yl)pyrimidin-4-yl)amino)-1-methyl-2-oxo-1,2-dihydroquinolin-3-yl)oxy)-N-methylacetamide], the DC50 was over 100 nM.

Consider `CNC(=O)COc1cc2cc(Nc3nc(N4CCC(OCCOCCOCCOCCOCCNc5cccc6c5C(=O)N(C5CCC(=O)NC5=O)C6=O)CC4)ncc3Cl)ccc2n(C)c1=O` (stereo not drawn) [compound 69, 2-((6-((5-chloro-2-(4-((14-((2-(2,6-dioxopiperidin-3-yl)-1,3-dioxoisoindolin-4-yl)amino)-3,6,9,12-tetraoxatetradecyl)oxy)piperidin-1-yl)pyrimidin-4-yl)amino)-1-methyl-2-oxo-1,2-dihydroquinolin-3-yl)oxy)-N-methylacetamide], for which the DC50 was over 100 nM. Next, `CNC(=O)COc1cc2cc(Nc3nc(N4CCC(OCCOCCOCC(=O)N[C@H](C(=O)N5C[C@H](O)C[C@H]5C(=O)NCc5ccc(-c6scnc6C)cc5)C(C)(C)C)CC4)ncc3Cl)ccc2n(C)c1=O` [compound 70, (2S,4R)-1-((S)-2-(2-(2-(2-((1-(5-chloro-4-((1-methyl-3-(2-(methylamino)-2-oxoethoxy)-2-oxo-1,2-dihydroquinolin-6-yl)amino)pyrimidin-2-yl)piperidin-4-yl)oxy)ethoxy)ethoxy)acetamido)-3,3-dimethylbutanoyl)-4-hydroxy-N-(4-(4-methylthiazol-5-yl)benzyl)pyrrolidine-2-carboxamide]: over 100 nM; `CNC(=O)COc1cc2cc(Nc3nc(N4CCC(OCCOc5ccc6c(c5)CN(C5CCC(=O)NC5=O)C6=O)CC4)ncc3Cl)ccc2n(C)c1=O` (stereo not drawn) [compound 71, 2-((6-((5-chloro-2-(4-(2-((2-(2,6-dioxopiperidin-3-yl)-1-oxoisoindolin-5-yl)oxy)ethoxy)piperidin-1-yl)pyrimidin-4-yl)amino)-1-methyl-2-oxo-1,2-dihydroquinolin-3-yl)oxy)-N-methylacetamide]: 50 to 100 nM. Take `CNC(=O)COc1cc2cc(Nc3nc(N4CCC(OCCOc5ccc6c(c5)C(=O)N(C5CCC(=O)NC5=O)C6=O)CC4)ncc3Cl)ccc2n(C)c1=O` (stereo not drawn) [compound 72, 2-((6-((5-chloro-2-(4-(2-((2-(2,6-dioxopiperidin-3-yl)-1,3-dioxoisoindolin-5-yl)oxy)ethoxy)piperidin-1-yl)pyrimidin-4-yl)amino)-1-methyl-2-oxo-1,2-dihydroquinolin-3-yl)oxy)-N-methylacetamide]: the DC50 lay within 50 to 100 nM.

With `CN1C(=O)CCc2cc(Nc3cc(OC4CCN(CCOCCOc5ccc6c(c5)C(=O)N(C5CCC(=O)NC5=O)C6=O)CC4)c([N+](=O)[O-])cc3Cl)ccc21` (stereo not drawn) [compound 73, 5-(2-(2-(4-(4-chloro-5-((1-methyl-2-oxo-1,2,3,4-tetrahydroquinolin-6-yl)amino)-2-nitrophenoxy)piperidin-1-yl)ethoxy)ethoxy)-2-(2,6-dioxopiperidin-3-yl)isoindoline-1,3-dione], the DC50 is over 100 nM.

Regarding `O=C1CCC(N2C(=O)c3ccc(OCCOCCN4CCC(Oc5cc(Nc6ccc7c(c6)CCC(=O)N7)c(Cl)cc5[N+](=O)[O-])CC4)cc3C2=O)C(=O)N1` (stereo not drawn) [compound 74, 5-(2-(2-(4-(4-chloro-2-nitro-5-((2-oxo-1,2,3,4-tetrahydroquinolin-6-yl)amino)phenoxy)piperidin-1-yl)ethoxy)ethoxy)-2-(2,6-dioxopiperidin-3-yl)isoindoline-1,3-dione], the DC50 is over 100 nM. `CNC(=O)COc1cc2cc(Nc3nc(N4CCC(OCCOCCNc5cccc6c5C(=O)N(C5CCC(=O)NC5=O)C6=O)CC4)ncc3Cl)ccc2n(C)c1=O` (stereo not drawn) [compound 75, 2-((6-((5-chloro-2-(4-(2-(2-((2-(2,6-dioxopiperidin-3-yl)-1,3-dioxoisoindolin-4-yl)amino)ethoxy)ethoxy)piperidin-1-yl)pyrimidin-4-yl)amino)-1-methyl-2-oxo-1,2-dihydroquinolin-3-yl)oxy)-N-methylacetamide]: the DC50 is 50 to 100 nM. The same measure for `CN1C(=O)CCc2cc(Nc3cc(OC4CCN(C(=O)COCCOc5ccc6c(c5)C(=O)N(C5CCC(=O)NC5=O)C6=O)CC4)c([N+](=O)[O-])cc3Cl)ccc21` (stereo not drawn) [compound 76, 5-(2-(2-(4-(4-chloro-5-((1-methyl-2-oxo-1,2,3,4-tetrahydroquinolin-6-yl)amino)-2-nitrophenoxy)piperidin-1-yl)-2-oxoethoxy)ethoxy)-2-(2,6-dioxopiperidin-3-yl)isoindoline-1,3-dione]: over 100 nM; for `CN1C(=O)CCc2cc(Nc3cc(N4CCC(CN5CCN(c6ccc7c(c6)C(=O)N(C6CCC(=O)NC6=O)C7=O)CC5)CC4)c([N+](=O)[O-])cc3Cl)ccc21` (stereo not drawn) [compound 77, 5-(4-((1-(4-chloro-5-((1-methyl-2-oxo-1,2,3,4-tetrahydroquinolin-6-yl)amino)-2-nitrophenyl)piperidin-4-yl)methyl)piperazin-1-yl)-2-(2,6-dioxopiperidin-3-yl)isoindoline-1,3-dione]: over 100 nM; for `CNC(=O)COc1cc2cc(Nc3nc(N4CCC(OCCOCCOCCOCCOCC(=O)N[C@H](C(=O)N5C[C@H](O)C[C@H]5C(=O)NCc5ccc(-c6scnc6C)cc5)C(C)(C)C)CC4)ncc3Cl)ccc2n(C)c1=O` [compound 78, (2S,4R)-1-((S)-2-(tert-butyl)-17-((1-(5-chloro-4-((1-methyl-3-(2-(methylamino)-2-oxoethoxy)-2-oxo-1,2-dihydroquinolin-6-yl)amino)pyrimidin-2-yl)piperidin-4-yl)oxy)-4-oxo-6,9,12,15-tetraoxa-3-azaheptadecanoyl)-4-hydroxy-N-(4-(4-methylthiazol-5-yl)benzyl)pyrrolidine-2-carboxamide]: 10 to 50 nM.

Regarding `CN1C(=O)CCc2cc(Nc3cc(OC4CCN(C5CCN(c6ccc7c(c6)C(=O)N(C6CCC(=O)NC6=O)C7=O)CC5)CC4)c([N+](=O)[O-])cc3Cl)ccc21` (stereo not drawn) [compound 79, 5-(4-(4-chloro-5-((1-methyl-2-oxo-1,2,3,4-tetrahydroquinolin-6-yl)amino)-2-nitrophenoxy)-[1,4′-bipiperidin]-1′-yl)-2-(2,6-dioxopiperidin-3-yl)isoindoline-1,3-dione], the DC50 is over 100 nM.

Consider `CNC(=O)COc1cc2cc(Nc3nc(N4CCC(OCCNc5cccc6c5C(=O)N(C5CCC(=O)NC5=O)C6=O)CC4)ncc3Cl)ccc2n(C)c1=O` (stereo not drawn) [compound 80, 2-((6-((5-chloro-2-(4-(2-((2-(2,6-dioxopiperidin-3-yl)-1,3-dioxoisoindolin-4-yl)amino)ethoxy)piperidin-1-yl)pyrimidin-4-yl)amino)-1-methyl-2-oxo-1,2-dihydroquinolin-3-yl)oxy)-N-methylacetamide], for which the DC50 lay within 50 to 100 nM. Next, `CNC(=O)COc1cc2cc(Nc3nc(N4CCC(OCCOCCOCCOCCOCCOCCNc5cccc6c5C(=O)N(C5CCC(=O)NC5=O)C6=O)CC4)ncc3Cl)ccc2n(C)c1=O` (stereo not drawn) [compound 81, 2-((6-((5-chloro-2-(4-((17-((2-(2,6-dioxopiperidin-3-yl)-1,3-dioxoisoindolin-4-yl)amino)-3,6,9,12,15-pentaoxaheptadecyl)oxy)piperidin-1-yl)pyrimidin-4-yl)amino)-1-methyl-2-oxo-1,2-dihydroquinolin-3-yl)oxy)-N-methylacetamide]: over 100 nM.
